From the NIST ThermoML archive (doi:10.1021/acs.jced.7b00002)

Tests used:
[1] = 97.6 kPa, Liquid; for viscosity: Capillary tube (Ostwald / Ubbelohde) method; for mass density: Vibrating tube method
[2] = xn = mol fraction of the nth substance listed; settings: 97.6 kPa, Liquid, x2 = 0; for viscosity: Capillary tube (Ostwald / Ubbelohde) method; for mass density: Vibrating tube method

CC(=O)N(C)C [N,N-dimethylethanamide]
[1]
Settings | mass density [kg/m3] | viscosity [mPa·s]
303.15 K | 931.85 | 0.89
308.15 K | 927.26 | 0.83
313.15 K | 922.66 | 0.78
318.15 K | 918.06 | 0.74
323.15 K | 913.44 | 0.7
328.15 K | 908.81 | 0.66
333.15 K | 904.16 | 0.63
338.15 K | 899.53 | 0.6
343.15 K | 894.87 | 0.57
348.15 K | 890.19 | 0.54
353.15 K | 885.51 | 0.52

c1ccncc1 [pyridine]
[1]
Settings | mass density [kg/m3] | viscosity [mPa·s]
303.15 K | 973.09 | 0.84
308.15 K | 968.06 | 0.79
313.15 K | 963.02 | 0.74
318.15 K | 957.97 | 0.7
323.15 K | 952.9 | 0.66
328.15 K | 947.82 | 0.62
333.15 K | 942.72 | 0.59
338.15 K | 937.6 | 0.56
343.15 K | 932.46 | 0.53
348.15 K | 927.3 | 0.51
353.15 K | 922.12 | 0.48

CN(C)C=O [dimethylformamide]
[1]
Settings | mass density [kg/m3] | viscosity [mPa·s]
303.15 K | 939.18 | 0.77
308.15 K | 934.41 | 0.72
313.15 K | 929.64 | 0.68
318.15 K | 924.86 | 0.65
323.15 K | 920.07 | 0.62
328.15 K | 915.26 | 0.59
333.15 K | 910.44 | 0.56
338.15 K | 905.6 | 0.54
343.15 K | 900.74 | 0.51
348.15 K | 895.87 | 0.49
353.15 K | 890.98 | 0.47

c1ccncc1 [pyridine] + CCCCCCCC[n+]1ccn(C)c1.[Cl-]
[2]
Settings | mass density [kg/m3] | viscosity [mPa·s]
303.15 K | 973.09 | 0.84
308.15 K | 968.06 | 0.79
313.15 K | 963.02 | 0.74
318.15 K | 957.97 | 0.7
323.15 K | 952.9 | 0.66
328.15 K | 947.82 | 0.62
333.15 K | 942.72 | 0.59
338.15 K | 937.6 | 0.56
343.15 K | 932.46 | 0.53
348.15 K | 927.3 | 0.51
353.15 K | 922.12 | 0.48

CCCCCCCC[n+]1ccn(C)c1.[Cl-] [1-methyl-3-octylimidazolium chloride]
[1]
Settings | mass density [kg/m3] | viscosity [mPa·s]
303.15 K | 1006.2 | 7339.7
308.15 K | 1003.33 | 4272.9
313.15 K | 1000.48 | 2766.9
318.15 K | 997.64 | 1788.6
323.15 K | 994.82 | 1198.7
328.15 K | 992 | 828.3
333.15 K | 989.17 | 588.69
338.15 K | 986.38 | 426.28
343.15 K | 983.63 | 316.66
348.15 K | 980.88 | 237.14
353.15 K | 978.13 | 181.41

CN(C)C=O [dimethylformamide] + CCCCCCCC[n+]1ccn(C)c1.[Cl-]
[2]
Settings | mass density [kg/m3] | viscosity [mPa·s]
303.15 K | 939.18 | 0.77
308.15 K | 934.41 | 0.72
313.15 K | 929.64 | 0.68
318.15 K | 924.86 | 0.65
323.15 K | 920.07 | 0.62
328.15 K | 915.26 | 0.59
333.15 K | 910.44 | 0.56
338.15 K | 905.6 | 0.54
343.15 K | 900.74 | 0.51
348.15 K | 895.87 | 0.49
353.15 K | 890.98 | 0.47

C[S+](C)[O-] [dimethyl sulfoxide] + CCCCCCCC[n+]1ccn(C)c1.[Cl-]
[2]
Settings | mass density [kg/m3] | viscosity [mPa·s]
303.15 K | 1090.29 | 1.8
308.15 K | 1085.28 | 1.66
313.15 K | 1080.3 | 1.53
318.15 K | 1075.31 | 1.41
323.15 K | 1070.32 | 1.3
328.15 K | 1065.33 | 1.21
333.15 K | 1060.34 | 1.13
338.15 K | 1055.34 | 1.06
343.15 K | 1050.35 | 0.99
348.15 K | 1045.34 | 0.93
353.15 K | 1040.33 | 0.88

C[S+](C)[O-] [dimethyl sulfoxide]
[1]
Settings | mass density [kg/m3] | viscosity [mPa·s]
303.15 K | 1090.29 | 1.8
308.15 K | 1085.28 | 1.66
313.15 K | 1080.3 | 1.53
318.15 K | 1075.31 | 1.41
323.15 K | 1070.32 | 1.3
328.15 K | 1065.33 | 1.21
333.15 K | 1060.34 | 1.13
338.15 K | 1055.34 | 1.06
343.15 K | 1050.35 | 0.99
348.15 K | 1045.34 | 0.93
353.15 K | 1040.33 | 0.88

CC(=O)N(C)C [N,N-dimethylethanamide] + CCCCCCCC[n+]1ccn(C)c1.[Cl-]
[2]
Settings | mass density [kg/m3] | viscosity [mPa·s]
303.15 K | 931.85 | 0.89
308.15 K | 927.26 | 0.83
313.15 K | 922.66 | 0.78
318.15 K | 918.06 | 0.74
323.15 K | 913.44 | 0.7
328.15 K | 908.81 | 0.66
333.15 K | 904.16 | 0.63
338.15 K | 899.53 | 0.6
343.15 K | 894.87 | 0.57
348.15 K | 890.19 | 0.54
353.15 K | 885.51 | 0.52
